In paper PMC4471201, “Micafungin concentrations 100 mg daily in plasma and burn eschars in patients with severe burn injuries” (Critical Care, 2015):
*1 amine or outer side, *2 acyl side, *3 side chain or, on linkers, in order; H or OH if unused. Where a SMILES comes first, the peptide text is derived from it. Bridges are numbered along the chain shown (N, C = ends). [ ]: non-standard residue; d: D form. The star is where a group is joined. hTyr(3S-OH,4S-OH,3'-OSO3H) = N[C@H](C(=O)O)[C@H](O)[C@@H](O)c1ccc(O)c(OS(=O)(=O)O)c1; Orn(4R-OH,5R-OH) = O=C([C@H](C[C@@H](O)[C@@H](O)N[*:3])N[*:1])[*:2]; Pro(3S-OH,4S-Me) = C[C@H]1CN[C@H](C(=O)O)[C@H]1O; X1 = CCCCCOc1ccc(-c2cc(-c3ccc(C(=O)*)cc3)no2)cc1; Gln(3R-OH) = NC(=O)C[C@@H](O)[C@H](N)C(=O)O; Hyp = O=C(O)[C@@H]1C[C@@H](O)CN1

What was measured:
Assay type in all cases: in vivo
[1] = MCF levels in burn eschar tissue on day 5, HPLC; conditions: Spearman's rho test; 10 patients
Description: (§1) A PK study of MCF at standard dosage (100 mg/day). Cmax (end of the infusion) and Cmin (before next dose) plasma levels of MCF were obtained after first dose and at steady state (days 4 and 5 of therapy); and on day 5 in eschars (1 to 3 hours after infusion). They were measured by HPLC. Spearman's rho test was used for bivariate correlations between MCF exposure and patient's clinical factors.

[2] = Plasma levels of MCF (Cmax/Cmin) in severely burned patients, HPLC; conditions: 100 mg/day
Description: as §1

[3] = Tolerability of MCF 100 mg/day in severely burned patients; conditions: 10 severely burned patients
Description: as §1
There were 10 patients (eight men; age: 18 to 77 years). […] Peak plasma concentrations after the first and repeated doses of MCF were inversely correlated with % burned TBSA (Spearman's ρ = -0.695 and -0.750 (P < 0.05)), respectively, but not with the time from burn injury. […] One patient had candidemia. The crude mortality was 40%.

Compound: CCCCCOc1ccc(-c2cc(-c3ccc(C(=O)N[C@H]4C[C@@H](O)[C@@H](O)NC(=O)[C@@H]5[C@@H](O)[C@@H](C)CN5C(=O)[C@H]([C@H](O)CC(N)=O)NC(=O)[C@H]([C@H](O)[C@@H](O)c5ccc(O)c(OS(=O)(=O)O)c5)NC(=O)[C@@H]5C[C@@H](O)CN5C(=O)[C@H]([C@@H](C)O)NC4=O)cc3)no2)cc1 [MCF, Micafungin] (X1-[Orn(4R-OH,5R-OH)]T[Hyp][hTyr(3S-OH,4S-OH,3'-OSO3H)][Gln(3R-OH)][Pro(3S-OH,4S-Me)]; lactam 1-C)
- Correlation of concentrations in burn eschars with % burned TBSA [1]: not correlated
- Plasma levels compared with MIC90 against most clinically important Candida species ([2]; after first and multiple doses): above the MIC90
- Plasma Cmin after first dose, median ([2]; median of 10 patients, before next dose, plasma, HPLC): 700 ng/mL
- Plasma Cmin at steady state, median ([2]; median of 10 patients, days 4 and 5 of therapy, before next dose, plasma, HPLC): 1000 ng/mL
- Plasma Cmax at steady state, median ([2]; median of 10 patients, days 4 and 5 of therapy, end of the infusion, plasma, HPLC): 6400 ng/mL
- Plasma Cmax after first dose, median ([2]; median of 10 patients, end of the infusion, plasma, HPLC): 4700 ng/mL
- Tolerability [3]: well tolerated
